Assay results reported in US4115585A, “Esters of 1-(p-hydroxyphenyl)-2-(1'-methyl-2'-phenoxyethylamino)-1-propanol” (Instituto Luso Farmaco d'Italia S.r.l., priority 1976, dated 1978).

Tests used:
[1] = Hypotensive activity (variation in pressure 1 to 2 days after insertion of a catheter in the abdominal artery, technique of Weeks and Jones); format: in vivo
[2] = in vivo; conditions: rat, po
Source text: According to the invention, esters I may be prepared by the esterification of the phenolic function of 1-(p-hydroxyphenyl)-2-(1'-methyl-2'-phenoxyethylamino)-1-propanol (II) with reactive derivatives like chlorides, bromides, and anhydrides of aliphatic acids of general formula III: [drawing 3] in which R1, R2, and R3 are as reported above. The esterification may be performed in an apolar solvent at reflux (such as benzene, toluene, or an analogous aromatic hydrocarbon) in the presence of an organic base like triethylamine, or in pyridine at room temperature.

Row | SMILES | Hypotensive Activity Recovery to 50% ([1]; dose 5 mg/Kg os) [min] | Hypotensive Activity Recovery to 75% ([1]; dose 5 mg/Kg os) [min] | Hypotensive Activity maximal pressure decrease ([1]; dose 5 mg/Kg os) [mm Hg] | Hypotensive Activity Recovery to 50% ([1]; dose 10 mg/Kg os) [min] | Hypotensive Activity Recovery to 75% ([1]; dose 10 mg/Kg os) [min] | Hypotensive Activity maximal pressure decrease ([1]; dose 10 mg/Kg os) [mm Hg] | Hypotensive Activity Recovery to 50% ([1]; dose 20 mg/Kg os) [min] | Hypotensive Activity Recovery to 75% ([1]; dose 20 mg/Kg os) [min] | Hypotensive Activity maximal pressure decrease ([1]; dose 20 mg/Kg os) [mm Hg] | Hypotensive Activity Recovery to 50% ([1]; dose 40 mg/Kg os) [min] | Hypotensive Activity Recovery to 75% ([1]; dose 40 mg/Kg os) [min] | Hypotensive Activity maximal pressure decrease ([1]; dose 40 mg/Kg os) [mm Hg] | Hypotensive Activity Recovery to 50% ([1]; dose 80 mg/Kg os) [min] | Hypotensive Activity Recovery to 75% ([1]; dose 80 mg/Kg os) [min] | Hypotensive Activity maximal pressure decrease ([1]; dose 80 mg/Kg os) [mm Hg] | LD50 [2] [mg/kg]
1 | CC(COc1ccccc1)NC(C)C(O)c1ccc(O)cc1 (stereo not shown) [Isoxysuprine, 1-(p-hydroxyphenyl)-2-(1'-methyl-2'-phenoxyethylamino)-1-propanol] | 8.0 ± 3.0 | 18.5 ± 6.5 | 24.5±11.5 | 79.8 ± 32.6 | 105.0 ± 42.9 | 25.3±3.6 | 46.4 ± 13.8 | 110.4 ± 29.4 | 28.7±4.9 | 34.0 ± 12.8 | 197.5 ± 59.5 | 21.8±2.1 |  |  |  | 
2 | CC(COc1ccccc1)NC(C)C(O)c1ccc(OC(=O)C(C)(C)C)cc1 (stereo not drawn) [LR 693, 1-(p-α,α-dimethylpropionyloxyphenyl)-2-(1'-methyl-2'-phenoxyethylamino)-1-propanol] |  |  |  |  |  |  | 29.0 ± 1.0 | 60.0 ± 20.0 | 9.0±1.0 | 115.7 ± 21.9 | 311.7 ± 34.2 | 21.3±4.1 | 180.2 ± 40.7 | 384.8 ± 71.0 | 18.8±8.0 | > 5000
